Test results from PMC11187217, “Anti-adhesive, anti-biofilm and fungicidal action of newly synthesized gemini quaternary ammonium salts” (Scientific Reports, 2024).
Like-named read-outs stand apart in the source and are kept apart here. Marks after values point to notes of the source that are not given here.

Key:
[1] = system: Salmonella Typhimurium TA98; assay: Mutagenicity, Ames test; conditions: for Number of colonies: ± SD
Protocol: (§1) The mutagenic potential of the tested gemini QAS was determined using the Ames test[83] using Salmonella Typhimurium TA98 and Salmonella Typhimurium TA100 with defects in histidine biosynthesis. The culture of S. Typhimurium TA98 and S. Typhimurium TA100 was incubated with shaking at 37 °C for 18 h, centrifuged (3000 rpm, 5 min) and OD = 1.5 was determined, at a wavelength of λ = 590 nm. The agar was dissolved and cooled to 42 °C. […] The media were incubated for 48 h at 37 °C. The positive control for the S. Typhimurium TA98 strain was acriflavin (100 μg/ml), and for the S. Typhimurium TA100 strain, sodium azide (15 μg/ml). The negative control was the culture without tested compound and with NaCl (0,9%). After incubation, the colonies were counted and the mutagenicity index (MR) was determined—the ratio of the number of revertants resulting from the mutagenic effect of the tested compound to the number of spontaneous revertants. Experiment was performed in three repetitions.

Candida albicans 595/20 = assay: MIC/MFC, microdilution method (modified CLSI M27); assay type: cell-based; conditions: C. albicans 595/20 (clinical isolate), 28 °C, 24 h
Protocol: (§2) Minimum inhibitory concentration (MIC) and minimum fungicidal concentration (MFC) values were determined based on the modified CLSI M27 protocol. The study was performed using the microdilution method on sterile 96-well titration plates. The S. cerevisiae Σ1278b ATCC 42800, S. cerevisiae BY4741 ATCC 201388, C. albicans ATCC 10231, C. albicans 595/20 and R. mucilaginosa ATCC 4056 were incubated for 18 h at 28 °C (without shaking), then centrifuged (1000 rcf, 5 min), and the obtained pellet was suspended in fresh YPG medium and optical density (OD) = 0.25–0.3 was determined at a wavelength (λ) of 590 nm. Next, 10 μl of selected compounds at appropriate final concentrations (5–1280 μM) were spotted into the wells of the titration plate. Then, 80 μl of YPG medium and 10 μl of culture with a fixed OD were added. All tests were performed in triplicate. The plate was incubated at 28 °C for 24 h. The YPG medium was a negative control, while the prepared culture not treated with compounds was a positive control. […] The minimum inhibitory concentration was determined at 90% growth inhibition.
(§3) In order to determine the MFC of selected gemini surfactants, 10 μl of culture was transferred to solid YPG medium from the wells of the titration plate in which MIC was observed and from wells with the compound with higher concentrations. The spotted suspensions were incubated at 28 °C for 24 h. After incubation, inhibition of the growth of microorganisms was observed.

[2] = system: Rhodotorula mucilaginosa ATCC 4056; assay: MIC/MFC, microdilution method (modified CLSI M27); assay type: cell-based; conditions: R. mucilaginosa ATCC 4056, 28 °C, 24 h
Protocol: as §2, §3

[3] = system: Candida albicans ATCC 10231; assay: MIC/MFC, microdilution method (modified CLSI M27); assay type: cell-based; conditions: C. albicans ATCC 10231, 28 °C, 24 h
Protocol: as §2, §3

[4] = system: Saccharomyces cerevisiae Σ1278b ATCC 42800; assay: MIC/MFC, microdilution method (modified CLSI M27); assay type: cell-based; conditions: S. cerevisiae Σ1278b, 28 °C, 24 h
Protocol: as §2, §3

[5] = system: Saccharomyces cerevisiae BY4741 ATCC 201388; assay: MIC/MFC, microdilution method (modified CLSI M27); assay type: cell-based; conditions: S. cerevisiae BY4741, 28 °C, 24 h
Protocol: as §2, §3

[6] = system: Salmonella Typhimurium TA100; conditions: for Number of colonies: ± SD
Protocol: as §1

[7] = Critical micelle concentration (CMC), conductometric method; assay type: physicochemical; conditions: double distilled water, 25 °C
Text: Alkanoyl chlorides (dodecanoyl, tetradecanoyl and hexadecanoyl) were obtained from Sigma-Aldrich. Anhydrous lactic acid (99%, crystalline) was purchased from Alfal. All solvents were obtained from Avantor Performance Materials or Stanlab and used as received. Methanol (solvent) for counterions exchange reactions was analytical grade (Avantor Performance Materials) and was additionally dried over CaH2 prior synthesis. Deuterated solvents were from Sigma-Aldrich. CMC values of surfactants were measured conductometrically in double distilled water at 25 °C.
Elemental analysis was conducted utilizing Vario EL cube (Elementar, Germany) calibrated on acetanilide. Mass spectra were gain by electrospray ionization mass spectroscopy (ESI–MS) (micrOTOF-Q instrument; Bruker Daltonics, Germany). The ESI–MS aparatus was operated in the positive ion mode (calibrated with the Tunemix™ mixture; Bruker Daltonics; Germany), followed by spectra analysis by the DataAnalysis 3.4 software (Bruker Daltonics, Germany)—resolution of at least 5 ppm. Proton NMR and ^13C NMR measurements were performed on a Bruker AMX-500 spectrometer, utilizing CDCl3 or DMSO-d6 as a solvent. Proton and ^13C chemical shifts (given in ppm) were calibrated to TMS (δ = 0 ppm) as an internal reference. Krafft points were measured according to procedures described in our previous studies Lamch et al.,[82]. Values of CMC for all surfactants were measured utilizing the conductometric method for the compounds’ solutions in milliQ water in the same manner as described in Kula et al.. For all spectra: ^1H NMR, ^13C NMR and ESI–MS as well as appropriate comments see Electronic Supplementary Material.

For `CCCCCCCCCCCCCCCC(=O)N(CCCN(CCC[N+](C)(C)C)C(=O)CCCCCCCCCCCCCCC)CCC[N+](C)(C)C` [2xC16MeCO3G3, dimethyl{{3-[N-(3-{N-[3-(dimethylammonium)propyl]hexadecylamido}propyl}hexadecylamido}propyl}}ammonium dimethylcarbonate], the “Mutagenicity ratio (MR)” value ([1]; TA98, ¼ MIC) was 1.55, the Number of colonies ([1]; TA98, ¼ MIC) was 35.3 ± 5.03 and the “Mutagenicity ratio (MR)” value ([1]; TA98, ½ MIC) was 1.85. For the same compound, the Number of colonies ([1]; TA98, ½ MIC) was 42.0 ± 2.16, the “Minimum inhibitory concentration (MIC)” value (Candida albicans 595/20; 90% growth inhibition, YPG) was > 1280 > 1280* µM and the “Minimum fungicidal concentration (MFC*)” value (Candida albicans 595/20; no growth on solid YPG) was > 1280 > 1280* µM. The “Minimum inhibitory concentration (MIC)” value ([2]; 90% growth inhibition, YPG) was 640 640* µM, the “Minimum fungicidal concentration (MFC*)” value ([2]; no growth on solid YPG) was 640 640* µM and the “Minimum inhibitory concentration (MIC)” value ([3]; 90% growth inhibition, YPG) was > 1280 > 1280* µM. For the same compound, the “Minimum fungicidal concentration (MFC*)” value ([3]; no growth on solid YPG) was > 1280 > 1280* µM, the “Minimum inhibitory concentration (MIC)” value ([4]; 90% growth inhibition, YPG) was > 1280 > 1280* µM and the “Minimum fungicidal concentration (MFC*)” value ([4]; no growth on solid YPG) was > 1280 > 1280* µM. The MIC ([5]; 90% growth inhibition, YPG, read-out: Minimum inhibitory concentration (MIC)) was 640 µM, the “Minimum fungicidal concentration (MFC*)” value ([5]; no growth on solid YPG) was 1280 µM and the “Mutagenicity ratio (MR)” value ([6]; TA100, ¼ MIC) was 1.43. For the same compound, the Number of colonies ([6]; TA100, ¼ MIC) was 398.0 ± 2.83, the “Mutagenicity ratio (MR)” value ([6]; TA100, ½ MIC) was 1.76 and the Number of colonies ([6]; TA100, ½ MIC) was 490.5 ± 3.54. For the same compound, the CMC [7] was 1.6*10^–6 mol/dm^3.
